pIC50, pKi: −log10 of the molar value.
Tests used:
[1] = target: GCN2 kinase (Homo sapiens, UniProt Q9P2K8); experiment: GCN2 enzyme inhibition assay (Transcreener ADP2 fluorescence polarization); assay type: biochemical; settings: 280 μM ATP
Outline: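 Inhibition of 4 nM GCN2 was measured with compound up to 8 μM final, ATP 280 μM and (RS)7 peptide 200 μM over a 1 h, 25 °C reaction. ADP FP readout; IC50 and Ki(app) calculated from percent inhibition.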

[2] = target: intracellular GCN2 (phosphorylation of the GCN2 substrate eIF2α) (Homo sapiens, UniProt Q9P2K8); experiment: GCN2 cellular inhibition assay (AlphaScreen SureFire P-eIF2α Ser51, borrelidin-treated U2OS cells); assay type: cell-based; settings: biomarker assay, phosphorylated eIF2α Ser51 in borrelidin-treated U2OS cells
intracellular GCN2 (phosphorylation of the GCN2 substrate eIF2α), sequence (Q9P2K8 whole entry): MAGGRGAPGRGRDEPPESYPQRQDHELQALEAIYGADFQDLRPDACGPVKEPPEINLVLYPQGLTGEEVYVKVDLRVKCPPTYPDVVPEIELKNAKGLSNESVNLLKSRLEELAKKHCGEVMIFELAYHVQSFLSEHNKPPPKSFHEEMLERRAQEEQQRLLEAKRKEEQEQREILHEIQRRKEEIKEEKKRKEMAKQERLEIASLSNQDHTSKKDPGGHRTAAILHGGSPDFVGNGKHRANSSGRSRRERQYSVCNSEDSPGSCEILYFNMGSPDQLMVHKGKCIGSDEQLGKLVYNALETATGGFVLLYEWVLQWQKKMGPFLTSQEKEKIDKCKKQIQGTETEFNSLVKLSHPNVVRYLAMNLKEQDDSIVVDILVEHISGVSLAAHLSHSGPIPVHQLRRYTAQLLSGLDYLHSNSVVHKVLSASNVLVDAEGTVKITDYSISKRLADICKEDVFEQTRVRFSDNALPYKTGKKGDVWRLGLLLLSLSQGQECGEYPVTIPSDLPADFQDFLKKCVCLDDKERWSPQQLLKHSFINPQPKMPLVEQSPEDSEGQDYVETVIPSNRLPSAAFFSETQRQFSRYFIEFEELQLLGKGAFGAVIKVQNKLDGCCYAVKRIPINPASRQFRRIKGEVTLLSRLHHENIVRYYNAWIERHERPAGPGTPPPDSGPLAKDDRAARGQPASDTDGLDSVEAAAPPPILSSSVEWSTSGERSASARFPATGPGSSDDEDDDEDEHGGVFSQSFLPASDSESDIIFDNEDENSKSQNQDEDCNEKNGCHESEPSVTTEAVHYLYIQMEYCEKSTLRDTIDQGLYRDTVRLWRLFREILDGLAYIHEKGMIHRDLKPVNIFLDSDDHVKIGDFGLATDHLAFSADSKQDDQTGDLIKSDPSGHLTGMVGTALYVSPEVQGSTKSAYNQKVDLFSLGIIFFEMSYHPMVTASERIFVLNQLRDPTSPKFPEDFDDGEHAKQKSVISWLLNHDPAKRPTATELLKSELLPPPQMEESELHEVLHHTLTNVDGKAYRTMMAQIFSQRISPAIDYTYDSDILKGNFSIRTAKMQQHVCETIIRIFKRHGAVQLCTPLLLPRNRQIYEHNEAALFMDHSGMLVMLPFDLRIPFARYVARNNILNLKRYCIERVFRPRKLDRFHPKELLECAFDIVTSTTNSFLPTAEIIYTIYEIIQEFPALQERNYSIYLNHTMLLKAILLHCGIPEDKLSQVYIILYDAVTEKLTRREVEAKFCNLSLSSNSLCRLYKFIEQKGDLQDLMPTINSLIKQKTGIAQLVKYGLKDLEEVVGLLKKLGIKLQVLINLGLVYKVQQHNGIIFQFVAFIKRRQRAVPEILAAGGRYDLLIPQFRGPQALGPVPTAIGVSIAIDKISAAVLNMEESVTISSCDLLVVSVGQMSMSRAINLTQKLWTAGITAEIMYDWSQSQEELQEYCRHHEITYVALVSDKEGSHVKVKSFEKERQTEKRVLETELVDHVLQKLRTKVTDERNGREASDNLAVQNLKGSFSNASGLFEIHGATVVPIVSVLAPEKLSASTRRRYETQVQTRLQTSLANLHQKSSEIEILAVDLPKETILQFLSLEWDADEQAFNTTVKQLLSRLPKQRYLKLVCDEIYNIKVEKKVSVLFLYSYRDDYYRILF
Outline: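 Phospho-eIF2α (Ser51) in lysates was quantified by AlphaScreen SureFire after a 1 h, 37 °C treatment of U2OS cells with 10 μM borrelidin and compound at 4-fold dilutions starting from 40 μM final. Inhibition expressed in percent against wells stimulated by borrelidin alone.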

[3] = compounds of Formula II, 4 nM GCN2 kinase
[4] = Enzyme activity for compounds of Formula IV, Ki(app), 25° C.

GCN2 kinase, sequence (Q9P2K8 whole entry): as above

Compound: CS(C)(=O)=N[C@H]1CCCN(c2cc(-c3cnc4ccc(C(F)F)nn34)ncn2)C1 (single isomer, unassigned) [II-502]
- pKi [1, 3]: 6.00 to 8.00
- pIC50 ([2]; compounds of Formula II): > 6.30

Compound: CC(NS(C)(=O)=O)C1CN(c2cc(-c3cnc4ccc(C(F)F)nn34)ncn2)CCO1 (centres unmarked) [II-159, N-(1-(4-(6-(6-(Difluoromethyl)imidazo[1,2-b]pyridazin-3-yl)pyrimidin-4-yl)morpholin-2-yl)ethyl)methanesulfonamide]
- pKi [1, 3]: 6.00 to 8.00
- pIC50 ([2]; compounds of Formula II): 5.30 to 6.30

Compound: OC[C@@H]1C[C@@H](C(F)(F)F)CN(c2cc(-c3cnc4ccc(C(F)F)nn34)ncn2)C1 [II-314, ((3R,5R)-1-(6-(6-(Difluoromethyl)imidazo[1,2-b]pyridazin-3-yl)pyrimidin-4-yl)-5-(trifluoromethyl)piperidin-3-yl)methanol]
- pKi [1, 3]: 6.00 to 8.00
- pIC50 ([2]; compounds of Formula II): < 5.30

Compound: CS(=O)(=O)N1CCOC2(CN(c3cc(-c4cnc5ccc(C(F)F)nn45)ncn3)C2)C1 [II-280, 2-(6-(6-(Difluoromethyl)imidazo[1,2-b]pyridazin-3-yl)pyrimidin-4-yl)-8-(methylsulfonyl)-5-oxa-2,8-diazaspiro[3.5]nonane]
- pKi [1, 3]: 6.00 to 8.00
- pIC50 ([2]; compounds of Formula II): < 5.30

Compound: C[C@H]1COCCN1c1cc(-c2cnc3ccc(C(F)F)nn23)ncn1 [II-325, (S)-4-(6-(6-(Difluoromethyl)imidazo[1,2-b]pyridazin-3-yl)pyrimidin-4-yl)-3-methylmorpholine]
- pKi [1, 3]: 6.00 to 8.00
- pIC50 ([2]; compounds of Formula II): 5.30 to 6.30

Compound: CC1CN(c2cc(-c3cnc4ccc(C(F)F)nn34)ncn2)CC1CNS(C)(=O)=O (centres unmarked) [II-18, N-((1-(6-(6-(Difluoromethyl)imidazo[1,2-b]pyridazin-3-yl)pyrimidin-4-yl)-4-methylpyrrolidin-3-yl)methyl)methanesulfonamide]
- pKi [1, 3]: > 8.00
- pIC50 ([2]; compounds of Formula II): > 6.30

Compound: FC(F)(F)c1cn2c(-c3nccc(N4CCOC(c5ccncc5)C4)n3)cnc2cn1 (centres unmarked) [IV-724]
- pKi [1, 4]: < 6.00
- pIC50 ([2]; compounds of Formula IV): < 5.30

Compound: CC(=O)N1CCN(c2cc(-c3cnc4ccc(N5CCOCC5)nn34)ccn2)CC1 [II-738, 1-(4-(4-(6-morpholinoimidazo[1,2-b]pyridazin-3-yl)pyridin-2-yl)piperazin-1-yl)ethan-1-one]
- pKi [1, 3]: < 6.00
- pIC50 ([2]; compounds of Formula II): < 5.30

Compound: CCC1C(CNS(C)(=O)=O)CCCN1c1cc(-c2cnc3ccc(C(F)F)nn23)ncn1 (centres unmarked) [II-391, N-((1-(6-(6-(Difluoromethyl)imidazo[1,2-b]pyridazin-3-yl)pyrimidin-4-yl)-2-ethylpiperidin-3-yl)methyl)methanesulfonamide]
- pKi [1, 3]: > 8.00
- pIC50 ([2]; compounds of Formula II): > 6.30

Compound: CC1CN(c2ccnc(-c3cnc4cnc(Cl)cn34)n2)C(C)C(c2c[nH]cn2)N1 (centres unmarked) [IV-349, 3-(4-(3-(1H-Imidazol-4-yl)-2,5-dimethylpiperazin-1-yl)pyrimidin-2-yl)-6-chloroimidazo[1,2-a]pyrazine]
- pKi [1, 4]: 7.00 to 8.00
- pIC50 ([2]; compounds of Formula IV): 5.30 to 6.30

Compound: CN1CCN(c2ccnc(-c3cnc4cnc(C(F)F)cn34)n2)CC1C(N)=O (centres unmarked) [IV-89, 4-(2-(6-(Difluoromethyl)imidazo[1,2-a]pyrazin-3-yl)pyrimidin-4-yl)-1-methylpiperazine-2-carboxamide]
- pKi [1, 4]: 6.00 to 7.00
- pIC50 ([2]; compounds of Formula IV): < 5.30

Compound: OC1CCC2CN(c3ccnc(-c4cnc5cnc(C(F)F)cn45)n3)CC2C1 (centres unmarked) [IV-116, 2-(2-(6-(Difluoromethyl)imidazo[1,2-a]pyrazin-3-yl)pyrimidin-4-yl)octahydro-1H-isoindol-5-ol]
- pKi [1, 4]: 6.00 to 7.00
- pIC50 ([2]; compounds of Formula IV): < 5.30

Compound: CS(=O)(=O)NCC1CCCN(c2cc(-c3cnc4ccc(C(F)F)nn34)cc(C#N)n2)C1 (centres unmarked) [II-130, N-((1-(6-Cyano-4-(6-(difluoromethyl)imidazo[1,2-b]pyridazin-3-yl)pyridin-2-yl)piperidin-3-yl)methyl)methanesulfonamide]
- pKi [1, 3]: 6.00 to 8.00
- pIC50 ([2]; compounds of Formula II): < 5.30

Compound: CS(=O)(=O)N1CCC2(CCN(c3cc(-c4cnc5ccc(C(F)F)nn45)ncn3)C2)CC1 [II-54, 2-(6-(6-(Difluoromethyl)imidazo[1,2-b]pyridazin-3-yl)pyrimidin-4-yl)-8-(methylsulfonyl)-2,8-diazaspiro[4.5]decane]
- pKi [1, 3]: 6.00 to 8.00
- pIC50 ([2]; compounds of Formula II): 5.30 to 6.30

Compound: O=C1CCN(c2cc(-c3cnc4ccc(C(F)F)nn34)ccn2)CCN1 [II-164, 1-(4-(6-(Difluoromethyl)imidazo[1,2-b]pyridazin-3-yl)pyridin-2-yl)-1,4-diazepan-5-one]
- pKi [1, 3]: 6.00 to 8.00
- pIC50 ([2]; compounds of Formula II): 5.30 to 6.30

Compound: Clc1cn2c(-c3nccc(N4CCOC(c5cn[nH]c5)C4)n3)cnc2cn1 (centres unmarked) [IV-6, 4-(2-(6-Chloroimidazo[1,2-a]pyrazin-3-yl)pyrimidin-4-yl)-2-(1H-pyrazol-4-yl)morpholine]
- pKi [1, 4]: > 8.00
- pIC50 ([2]; compounds of Formula IV): > 6.30

Compound: N=S1(=O)CCN(c2cc(-c3cnc4ccc(C(F)F)nn34)ncn2)CC1 [II-676, 4-[6-[6-(Difluoromethyl)imidazo[1,2-b]pyridazin-3-yl]pyrimidin-4-yl]-1-imino-1,4-thiazinane 1-oxide]
- pKi [1, 3]: 6.00 to 8.00
- pIC50 ([2]; compounds of Formula II): < 5.30

Compound: CS(=O)(=O)NCC1CN(c2cc(-c3cnc4ccc(C(F)F)nn34)ncn2)CC1O (centres unmarked) [II-152, N-((1-(6-(6-(Difluoromethyl)imidazo[1,2-b]pyridazin-3-yl)pyrimidin-4-yl)-4-hydroxypyrrolidin-3-yl)methyl)methanesulfonamide]
- pKi [1, 3]: 6.00 to 8.00
- pIC50 ([2]; compounds of Formula II): < 5.30

Compound: CC(=O)N1CCN(c2ccnc(-c3cnc4cnc(C(F)F)cn34)n2)CC1 [IV-22, 1-(4-(2-(6-(Difluoromethyl)imidazo[1,2-a]pyrazin-3-yl)pyrimidin-4-yl)piperazin-1-yl)ethan-1-one]
- pKi [1, 4]: 6.00 to 7.00
- pIC50 ([2]; compounds of Formula IV): < 5.30

Compound: CC1CC(F)(F)C(CNS(C)(=O)=O)CN1c1cc(-c2cnc3ccc(C(F)F)nn23)ncn1 (single isomer, unassigned) [II-304, N-((1-(6-(6-(Difluoromethyl)imidazo[1,2-b]pyridazin-3-yl)pyrimidin-4-yl)-4,4-difluoro-6-methylpiperidin-3-yl)methyl)methanesulfonamide]
- pKi [1, 3]: > 8.00
- pIC50 ([2]; compounds of Formula II): > 6.30

Compound: Oc1cccc(-c2ccnc(-c3cnc4cnc(C(F)F)cn34)n2)c1 [IV-161, 3-(2-(6-(Difluoromethyl)imidazo[1,2-a]pyrazin-3-yl)pyrimidin-4-yl)phenol]
- pKi [1, 4]: 6.00 to 7.00
- pIC50 ([2]; compounds of Formula IV): < 5.30

Compound: CC1CN(c2ccnc(-c3cnc4cnc(C(F)(F)F)cn34)n2)C(C)C(c2cnn(C)c2)N1 (centres unmarked) [IV-687, 3-(4-(2,5-Dimethyl-3-(1-methyl-1H-pyrazol-4-yl)piperazin-1-yl)pyrimidin-2-yl)-6-(trifluoromethyl)imidazo[1,2-a]pyrazine]
- pKi [1, 4]: 6.00 to 7.00
- pIC50 ([2]; compounds of Formula IV): 5.30 to 6.30

Compound: CCN1CCN(c2cc(-c3cnc4ccc(C(F)F)nn34)ncn2)C(C)C1CNS(C)(=O)=O (centres unmarked) [II-482, N-((4-(6-(6-(difluoromethyl)imidazo[12-b]pyridazin-3-yl)pyrimidin-4-yl)-1-ethyl-3-methylpiperazin-2-yl)methyl)methanesulfonamide]
- pKi [1, 3]: > 8.00
- pIC50 ([2]; compounds of Formula II): > 6.30

Compound: O=S(=O)(NCC1CCCN(c2cc(-c3cnc4ccc(C(F)F)nn34)ncn2)C1)C1CNC1 (centres unmarked) [II-272, N-((1-(6-(6-(Difluoromethyl)imidazo[1,2-b]pyridazin-3-yl)pyrimidin-4-yl)piperidin-3-yl)methyl)azetidine-3-sulfonamide]
- pKi [1, 3]: 6.00 to 8.00
- pIC50 ([2]; compounds of Formula II): < 5.30

Compound: O=C1NCC2CN(c3cc(-c4cnc5ccc(C(F)F)nn45)ncn3)CCN12 (centres unmarked) [II-46, 7-(6-(6-(Difluoromethyl)imidazo[1,2-b]pyridazin-3-yl)pyrimidin-4-yl)hexahydroimidazo[1,5-a]pyrazin-3(2H)-one]
- pKi [1, 3]: 6.00 to 8.00
- pIC50 ([2]; compounds of Formula II): < 5.30

From patent publication US10988477B2 (Merck Patent GmbH, priority 2018, dated 2021)
